Test results taken from patent US20070254837A1, “Treatment for Necrotizing Enterocolitis” (UNIVERSITY TECHNOLOGIES INTERNATIONAL INC., priority 2003, published 2007).
Entries after “also recorded” stand apart in the source; their conditions may differ.

Assays:
[1] = system: necrotizing enterocolitis; settings: 152 infants, birthweight ≦1250 g, gestational age ≦32 weeks; dietary L-arginine supplementation; reduced from 27%; cited from earlier work
[2] = system: neonatal rat model of necrotizing enterocolitis; test: Neonatal rat model of necrotizing enterocolitis: clinical (macroscopic) assessment of small intestine on autopsy; type: in vivo; settings: for discoloration (visual assessment of luminal blood) / stenosis: FIG. 3; for clinical scoring on autopsy (overall clinical appearance, pathology/damage scores): FIG. 2
Description: (§1) These studies utilized a well-validated neonatal rat model of necrotizing enterocolitis (14). Briefly, neonatal Sprague-Dawley rats (Charles River Laboratories Inc., Wilmington, Mass.) were collected from their mothers immediately after birth, prior to suckling maternal milk. Animals were weighed and placed in infant incubators to control body temperature. Subsequently, rats were hand fed via the orogastric route 0.1 ml of rat milk substitute (RMS) consisting of prepared infant formula (Esbilac formula, Pet-Ag, New Hampshire, Ill.) plus or minus the therapeutic supplement every three hours. EGF (Austral Biologics, San Ramon, Calif.) was produced by genetically engineered yeast and purified by sequential chromatography and reverse phase high pressure liquid chromatography (HPLC) and determined to be >97% pure by N-terminal amino acid sequencing, amino acid composition, HPLC analysis and SDS gel electrophoresis. Arginine (L-arginine hydrochloride, crystalline, ICN Biomedicals Inc, Aurora, Ohio) was produced by a proprietary synthetic process. EGF (100 ng/ml) and L-arginine (1.35-2.7 mg/ml) were admininstered based on daily feed intake to achieve a dose of 1.5 mmol/kg/day of L-arginine (in standardized units these doses work out to ˜20 ug EGF/kg/day and ˜316 mg L-arginine/kg/day, for a ratio of about 1:472 500 mole/mole). The EGF and L-arginine were gently vortexed and thoroughly mixed into the Esbilac infant formula. After 48 hrs of feeding, volumes were advanced slowly to 0.3 ml as tolerated. To induce clinical disease rats were stressed twice daily with asphyxia by breathing 100% nitrogen gas for 60 sec followed by cold stress at 4° C. for 10 min starting one hour after birth.
Six separate experimental groups were studied: unstressed rats artificially fed with EGF-free rat milk substitute (RMS) (Control, n=10); stressed rats that were dam-fed (Control (s), n=7); stressed rats artificially fed EGF-free RMS (NEC, n=10); stressed rats artificially fed RMS supplemented with 100 ng/ml recombinant human EGF (EGF-NEC, n=6); stressed rats artificially fed RMS supplemented with 1.5 mmol L-arginine/kg/day (ARG-NEC, n=6); and stressed rats artificially fed RMS supplemented with 100 ng/ml recombinant human EGF+1.5 mmol L-arginine/kg/day (EGF/ARG-NEC, n=8). Animals that developed abdominal distension, respiratory distress or lethargy during the 96-hour course of the experiment were terminated. After 96 hours all surviving animals were killed by decapitation and the small intestine removed for further analysis.
(§2) Body weights and tail lengths were recorded daily, and twice daily urination and defecation was induced by gentle stimulation of the anogenital region and stool collected for future analysis. The small intestine was visually assessed for clinical signs of NEC such as intestinal hemorrhage and discoloration, and ileal distension and stenosis. The small intestine was then divided into two halves and 2-3 cm of tissue from the distal segment (ileum) fixed, embedded in paraffin, and counterstained with hematoxylin and eosin for histological evaluation of NEC (14). Histology was evaluated in a blinded manner and graded as follows: normal (0) showing no damage; mild (+1) showing slight submucosal and/or lamina propria separation (+2); moderate (+2) displaying moderate separation of the submucosa and/or lamina propria, and/or edema in the submucosal and muscular layers; severe (+3) showing severe separation of submucosa and/or lamina propria, and/or severe edema in the submucosal and muscular layers, and regional villus sloughing; necrosis (+4) displaying loss of villi and necrosis (14). The length of the remaining ileum was measured and the tissue homogenized in 2.5 mM ethylenediaminetetraacetic acid (EDTA), snap frozen in liquid nitrogen, and stored at […] for later analysis of lactase activity (21) and ileal protein (5) and DNA (3 1) content.
(§3) Data are expressed as means ±SE. […]

[3] = system: neonatal rat model of necrotizing enterocolitis; test: Neonatal rat model of necrotizing enterocolitis: histological evaluation of distal ileal tissue; type: in vivo; settings: for histological damage scores: distal ileal tissue, compared to NEC animals, FIG. 5; for appearance of ileal tissue sections (photomicrographs): distal ileum, hematoxylin and eosin, FIG. 4
Description: as §1, with “To induce clinical disease rats were stressed twice daily with asphyxia by breathing 100% nitrogen gas for 60 sec followed by cold stress at 4° C. for 10 min starting one hour after birth.” left out
as §2, with “The small intestine was then divided into two halves and 2-3 cm of tissue from the distal segment (ileum) fixed, embedded in paraffin, and counterstained with hematoxylin and eosin for histological evaluation of NEC (14).” left out
as §3

lactase = test: Neonatal rat model of necrotizing enterocolitis: total lactase activity in distal ileal tissue; type: in vivo; settings: compared to untreated NEC rats, FIG. 6
Description: These studies utilized a well-validated neonatal rat model of necrotizing enterocolitis (14). Briefly, neonatal Sprague-Dawley rats (Charles River Laboratories Inc., Wilmington, Mass.) were collected from their mothers immediately after birth, prior to suckling maternal milk. Animals were weighed and placed in infant incubators to control body temperature. Subsequently, rats were hand fed via the orogastric route 0.1 ml of rat milk substitute (RMS) consisting of prepared infant formula (Esbilac formula, Pet-Ag, New Hampshire, Ill.) plus or minus the therapeutic supplement every three hours. EGF (Austral Biologics, San Ramon, Calif.) was produced by genetically engineered yeast and purified by sequential chromatography and reverse phase high pressure liquid chromatography (HPLC) and determined to be >97% pure by N-terminal amino acid sequencing, amino acid composition, HPLC analysis and SDS gel electrophoresis. […]
Body weights and tail lengths were recorded daily, and twice daily urination and defecation was induced by gentle stimulation of the anogenital region and stool collected for future analysis. The small intestine was visually assessed for clinical signs of NEC such as intestinal hemorrhage and discoloration, and ileal distension and stenosis. […]
as §3

[4] = system: neonatal piglet model of NEC; settings: infusion; cited from earlier work
[5] = system: necrotizing enterocolitis; settings: cited from earlier work
[6] = stressed neonatal rats, RMS with EGF 100 ng/ml and/or L-arginine 1.5 mmol/kg/day, 96 h, compared to untreated (NEC) group

Compound	incidence of NEC [1]	discoloration (visual assessment of luminal blood) ([2]; compared to controls)	stenosis ([2]; compared to controls)	discoloration (visual assessment of luminal blood) ([2]; compared to untreated group)	discoloration (visual assessment of luminal blood) ([2]; compared to untreated group, listed as L-arginine)	clinical scoring on autopsy (overall clinical appearance, pathology/damage scores) [2, 6]	histological damage scores [3]	appearance of ileal tissue sections (photomicrographs) [3]	total lactase activity (lactase)	intestinal injury [4]	clinical scoring on autopsy (overall clinical appearance, pathology/damage scores) ([2]; same treatment, compared to control animals)	protective effect ([5]; EGF at 500 ng/ml)	clinical benefit ([5]; EGF at physiological concentration of 100 ng/ml)
N=C(N)NCCCC(N)C(=O)O (stereo not shown) [Arg, 2-amino-5-guanidinovaleric acid]	7%	significantly elevated	significant stenosis	significantly less discoloration than observed in the untreated group	decreased the appearance of blood in the lumen	did not differ	did not differ	Significant damage	did not alter the deficit in lactase activity	markedly reduced intestinal injury	–	–	–
EGF: 53-amino acid protein, human EGF sequence SEQ ID NO: 1, produced by genetically engineered yeast (Austral Biologics)	–	significantly elevated	significant stenosis	–	–	significantly less than that observed in the untreated (NEC) group; also recorded: some protection against physical damage to the intestine	did not differ	Significant damage	did not alter the deficit in lactase activity	–	still significantly increased over control animals	protective effect	no significant clinical benefit
